Assay results published in US20110142829A1, “ANTI-TUMOUR COMPOSITIONS AND METHODS” (priority 2008, published 2011).
Like-named read-outs stand apart in the source and are kept apart here.

Assays:
A549 lung cancer cells = settings: for Tumour Growth Inhibition (TGI): A549 tumours in nude mice, cisplatin 5 mg/kg; for Tumour Growth Inhibition (TGI) / mean tumour volume on day 21: oltipraz 100 mg/kg; for mean tumour volume on day 1: day 1 (initiation of treatment); for mean tumour volume on day 21: cisplatin 5 mg/kg day 2, vehicle control 536 mm^3
Procedure: (§1) Initiation of treatment was designated day 1.
A549 human lung cancer cells were obtained from ATCC. These cells were grown in F-12 supplemented with 10% Fetal Calf Serum (FCS), penicillin and streptomycin, and 2 mM L-Glutamine. Cells were sub-cultured by removing the medium, rinsing twice with sterile calcium-free and magnesium-free phosphate buffered saline (PBS) and adding 1 to 2 ml of 0.25% trypsin and 0.03% EDTA solution. The flask was allowed to sit at 37° C. until the cells detached. Cells were then sub-cultured at a ratio of 1:3.
(§2) Animals were acclimatized prior to study commencement.
Tumours were measured once every two days with micro-calipers, and tumour volume was calculated as (length×width)^3π/3. The tumour growth index (TGI) was calculated using the formula 100−(Vc*100/Vt), where Vc is the mean volume of the tumours in the control group and Vt is the mean volume of the tumours in the test group.
Tumour volumes were calculated from the length and width measurements taken on alternating days by calculating the mean radius (r), which was the sum of length and width divided by 4, and using the formula 4/3 πr^3 to calculate the volume.

[1] = formulated with CMC
[2] = oltipraz 100 mg/kg po days 1, 3, 8, 10, given with Cetuximab
Source text: as §1, §2
Groups were compared using the One-Way ANOVA method.

Row | Structure (SMILES) | Tumour Growth Inhibition (TGI) (A549 lung cancer cells) [%] | mean tumour volume on day 1 (A549 lung cancer cells) [mm^3] | mean tumour volume on day 21 (A549 lung cancer cells) [mm^3] | amount that can be administered without significant toxicity resulting [1] | toxicity based on observations of survival and weight change [2] | average weight gain, % of starting weight by day 21 (female nude mice with A549 tumours, cisplatin 5 mg/kg sc day 2, oltipraz 100 mg/kg po (alone days 1, 3, 8, 10; combination days 1 and 3), day 21) [%] | toxicity based on observations of survival and weight change (oltipraz alone 100 mg/kg po days 1, 3, 8, 10)
1 | N.N.[Cl][Pt][Cl] [cisplatin, cis-diamminedichloridoplatinum(II)] | 48.8 | 93 | 275 | – | – | – | –
2 | Cc1c(-c2cnccn2)ssc1=S [oltipraz, 4-methyl-5(2-pyrazinyl)-3H-1,2-dithiole-3-thione] | 62.3 | 93 | 200 | up to 2000 mg/kg | no evidence of toxicity | 4.9 | no evidence of toxicity
